Data from patent US6723739B1, “Glucopyranoside benzothiophenes” (Eli Lilly and Company, priority 1994, dated 2004).

Key:
serum cholesterol = assay: Serum cholesterol in the ovariectomized rat post-menopausal model; assay type: in vivo; conditions: OVX rats, daily for 4 days
Description: (§1) A post-menopausal model was used in which effects of different treatments upon circulating lipids were determined.
(§2) Seventy-five day old female Sprague Dawley rats (weight range of 200 to 225 g) were obtained from Charles River Laboratories (Portage, Mich.). The animals were either bilaterally ovariectomized (OVX) or exposed to a sham surgical procedure at Charles River Laboratories, and then shipped after one week. Upon arrival, they were housed in metal hanging cages in groups of 3 or 4 per cage and had ad libitum access to food (calcium content approximately 0.5%) and water for one week. Room temperature was maintained at 22.2°±1.7° C. with a minimum relative humidity of 40%. The photoperiod in the room was 12 hours light and 12 hours dark.
(§3) Dosina Regimen/Tissue Collection. After a one week acclimation period (therefore, two weeks post-OVX) daily dosing with test compound was initiated. All compounds were administered subcutaneously at the dosages listed. Animals were dosed daily for 4 days. Following the dosing regimen animals were weighed and anesthetized with a ketamine: xylazine (2:1, [V:V] mixture and a blood sample was collected by cardiac puncture. The animals were then sacrificed by asphyxiation with CO2 and the uterus was removed through a midline incision and a wet weight was determined.
Cholesterol Analysis. Blood samples were allowed to clot at room temperature for 2 hrs, and serum was obtained following centrifugation for 10 min at 3000 rpm. Serum cholesterol was determined using a Boehringer Mannheim Diagnostics high performance cholesterol assay. Briefly the cholesterol was oxidized to cholest-4-en-3-one and hydrogen peroxide. The hydrogen peroxide was then reacted with phenol and 4-aminophenazone in the presence of peroxidase to produce a p-quinone imine dye, which was read spectrophotometrically at 500 nm. Cholesterol concentration was then calculated against a standard curve. The entire assay was automated using a Biomek Automated workstation.

uterus = assay: Uterine wet weight in ovariectomized rats; assay type: in vivo, rat; conditions: OVX rats, daily for 4 days, vs control OVX
Description: as §1, §2, §3

[1] = test system: uterine eosinophil peroxidase; assay: Uterine eosinophil peroxidase (EPO) assay in ovariectomized rats; assay type: in vivo, rat; conditions: OVX rats, daily for 4 days
From the text: as §2, §3
Uterine Eosinophil Peroxidase (EPO) Assay. The presence of eosinophils in the uterus is an indication of estrogenic activity of a compound. To maintain EPO activity, uteri were kept at 4° C. until time of enzymatic analysis. The uteri were then homogenized in 50 volumes of 50 mM Tris buffer (pH-8.0) containing 0.005% Triton X-100. Upon addition of 0.01% hydrogen peroxide and 10 mM o-phenylenediamine (final concentrations) in Tris buffer, increase in absorbance was monitored for one minute at 450 nm. The maximal velocity of a 15 second interval was determined over the initial linear portion of the reaction curve.

[2] = Systemic circulation and metabolites after oral raloxifene in humans; assay type: in vivo, human

% Uterine Wt. gain (uterus; 0.013 mg/kg subcutaneously) [%] | % Uterine Wt. gain (uterus; 0.13 mg/kg subcutaneously) [%] | % Uterine Wt. gain (uterus; 1.3 mg/kg subcutaneously) [%] | EPO Activity (Vmax for eosinophil peroxidase activity) ([1]; 0.013 mg/kg subcutaneously) [n OD/min] | EPO Activity (Vmax for eosinophil peroxidase activity) ([1]; 0.13 mg/kg subcutaneously) [n OD/min] | EPO Activity (Vmax for eosinophil peroxidase activity) ([1]; 1.3 mg/kg subcutaneously) [n OD/min] | Metabolite status ([2]; human metabolite of raloxifene) | Concentrations of raloxifene in systemic circulation ([2]; administered orally to humans) | SMILES | % Decrease of Serum Cholesterol (serum cholesterol; 0.013 mg/kg subcutaneously) [%] | % Decrease of Serum Cholesterol (serum cholesterol; 0.13 mg/kg subcutaneously) [%] | % Decrease of Serum Cholesterol (serum cholesterol; 1.3 mg/kg subcutaneously) [%]
−21.3 | 14.2 | 24.1 | 2.0 | 2.3 | 3.5 |  |  | O=C(c1ccc(OCCN2CCCCC2)cc1)c1c(-c2ccc(O)cc2)sc2cc(O[C@@H]3OC(C(=O)O)[C@@H](O)[C@H](O)[C@H]3O)ccc12 (some centres unmarked) [Ia] | 21.7 | 43.8 | 44.5
−7.7 | 14.5 | 36.1 | 3.2 | 3.1 | 4.4 | predominant human metabolite |  | O=C(c1ccc(OCCN2CCCCC2)cc1)c1c(-c2ccc(O[C@@H]3O[C@H](C(=O)O)[C@@H](O)[C@H](O)[C@H]3O)cc2)sc2cc(O)ccc12 [Ib] | 13.6 | 21.9 | 56.8
 |  |  |  |  |  |  | absence of detectable concentrations | Cl.O=C(c1ccc(OCCN2CCCCC2)cc1)c1c(-c2ccc(O)cc2)sc2cc(O)ccc12 [raloxifene, 6-Hydroxy-2-(4-hydroxyphenyl)-3-[4-(2-piperidinoethoxy)benzoyl]benzo[b]thiophene, reference compound] |  |  | 
